Assay results as given in patent US8389513B2, “2-amino-5,5-difluoro-5,6-dihydro-4H-[1,3]oxazin-4-yl)-phenyl]-amides” (Hoffmann-La Roche Inc., priority 2009, dated 2013).

Tests used:
BACE1 = biological target: T1, BACE1 (Homo sapiens, UniProt P56817); assay: Cellular Aβ-lowering assay (Aβ40 ELISA); assay type: cell-based; details: HEK293 cells stably expressing human APP695; Aβ40 in culture supernatant; read-out: BACE1 cell act. Aβ40 IC50
T1 construct: Human HEK293 cells which are stably transfected with a vector expressing a cDNA of the human APP wt gene (APP695); endogenous in cells; host or cells: HEK293 stably transfected with human APP695 wt
Experimental: Cellular Aβ-Lowering Assay:
Human HEK293 cells which are stably transfected with a vector expressing a cDNA of the human APP wt gene (APP695) were used to assess the potency of the compounds in a cellular assay. The cells were seeded in 96-well microtiter plates in cell culture medium (Iscove, plus 10% (v/v) fetal bovine serum, glutamine, penicillin/streptomycin) to about 80% confluence and the compounds were added at a 10× concentration in 1/10 volume of medium without FCS containing 8% DMSO (final concentration of DMSO was kept at 0.8% v/v). After 18-20 hrs incubation at 37° C. and 5% CO2 in a humidified incubator the culture supernatant was harvested for the determination of Aβ40 concentrations. […] Subsequently the wells of the microtiter plate were washed extensively with Tris-buffered saline containing 0.05% Tween 20 and the assay was developed with tetramethylbenzidine/H2O2 in citric acid buffer. After stopping the reaction with one volume 1 NH2SO4 the reaction was measured in an ELISA reader at 450 nm wavelength. The concentrations of Aβ in the culture supernatants were calculated from a standard curve obtained with known amounts of pure Aβ peptide.

BACE2 = biological target: T2, BACE2 (Rattus norvegicus, UniProt Q6IE75); assay: Assay for BACE inhibition by measuring cellular TMEM27 cleavage; assay type: cell-based; details: INS-TMEM27 cells (INS1e-derived); shed TMEM27 by ELISA; read-out: BACE2 cell act. IC50
T2 construct: endogenous cellular BACE2 in the Ins1e rat cell line; endogenous in cells; host or cells: INS-TMEM27 (INS1e-derived rat cell line with TetOn-inducible full-length hTMEM27)
T2 sequence (Q6IE75 63-514): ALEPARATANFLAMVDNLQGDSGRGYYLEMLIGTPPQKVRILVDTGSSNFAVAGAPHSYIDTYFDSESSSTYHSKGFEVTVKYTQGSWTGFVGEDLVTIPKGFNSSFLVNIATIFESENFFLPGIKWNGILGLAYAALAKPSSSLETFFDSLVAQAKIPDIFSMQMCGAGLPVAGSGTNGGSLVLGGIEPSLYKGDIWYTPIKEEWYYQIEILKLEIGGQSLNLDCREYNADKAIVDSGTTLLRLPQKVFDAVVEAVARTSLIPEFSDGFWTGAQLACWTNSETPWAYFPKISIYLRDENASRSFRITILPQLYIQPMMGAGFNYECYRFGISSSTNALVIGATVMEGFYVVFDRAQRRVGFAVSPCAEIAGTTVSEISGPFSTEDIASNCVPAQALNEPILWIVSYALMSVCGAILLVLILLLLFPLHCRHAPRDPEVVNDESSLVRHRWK
Text: Assay for BACE Inhibition by Measuring Cellular TMEM27 Cleavage:
The assay uses the principle of inhibition of human TMEM27 cleavage by endogenous cellular BACE2 in the Ins1e rat cell line and shedding from the cell surface into the culture medium, followed by detection in an ELISA assay. Inhibition of BACE2 prevents the cleavage and shedding in a dose-dependent manner.
The stable cell line “INS-TMEM27” represents an INS1e-derived cell line with inducible expression (using the TetOn system) of full-length hTMEM27 in a doxycycline-dependent manner. The cells are cultured throughout the experiment in RPMI1640+Glutamax (Invitrogen) Penicillin/Streptomycin, 10% Fetal bovine serum, […] pyruvate, […] beta-mercatptoethanol, 100 micrograms/ml G418 and 100 microgram/ml hygromycin and are grown inadherent culture at 37° C. in a standard CO2 cell culture incubator. INS-TMEM27 cells are seeded in 96-well plates. After 2 days in culture, BACE2 inhibitor is added in a range of concentrations as required by the assay and after a further two hours, doxycycline is added to a final concentration of 500 ng/ml. The cells are incubated for a further 46 hours and the supernatant harvested for detection of shed TMEM27.
An ELISA assay (using a pair of mouse anti-human-TMEM27 antibodies, raised against the extracellular domain of TMEM27) is used for detection of TMEM27 in the culture medium. An EC50 for BACE2 inhibition is calculated using the ELISA readout for each inhibitor concentration with standard curve-fitting software such as XLFit for the Excel spreadsheet program.

T1 sequence (P56817 46-501): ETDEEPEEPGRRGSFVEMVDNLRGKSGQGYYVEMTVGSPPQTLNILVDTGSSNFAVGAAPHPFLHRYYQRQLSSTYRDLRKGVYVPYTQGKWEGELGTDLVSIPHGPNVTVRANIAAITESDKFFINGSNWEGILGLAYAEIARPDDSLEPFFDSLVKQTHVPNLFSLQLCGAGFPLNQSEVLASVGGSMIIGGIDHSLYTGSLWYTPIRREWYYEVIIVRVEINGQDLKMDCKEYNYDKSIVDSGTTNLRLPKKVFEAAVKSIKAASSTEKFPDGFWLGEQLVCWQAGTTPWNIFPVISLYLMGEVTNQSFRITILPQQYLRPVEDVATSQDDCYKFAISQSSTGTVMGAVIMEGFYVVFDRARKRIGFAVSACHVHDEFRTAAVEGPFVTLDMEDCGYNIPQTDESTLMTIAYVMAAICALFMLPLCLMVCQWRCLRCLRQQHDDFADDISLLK

Row | Structure (SMILES) | IC50 (BACE1) [µM] | IC50 (BACE2) [µM]
1 | CC1(C)OC(N)=N[C@](C)(c2cc(NC(=O)c3ccc(OCF)cn3)ccc2F)C1(F)F [Example 26, 5-Fluoromethoxy-pyridine-2-carboxylic acid [3-((R)-2-amino-5,5-difluoro-4,6,6-trimethyl-5,6-dihydro-4H-[1,3]oxazin-4-yl)-4-fluoro-phenyl]-amide] | 0.03 | 0.761
2 | CC1(C)OC(N)=N[C@](C)(c2cc(NC(=O)c3ccc(OC(F)F)cn3)ccc2F)C1(F)F [Example 27, 5-Difluoromethoxy-pyridine-2-carboxylic acid [3-((R)-2-amino-5,5-difluoro-4,6,6-trimethyl-5,6-dihydro-4H-[1,3]oxazin-4-yl)-4-fluoro-phenyl]-amide] | 0.047 | 5.35
3 | CC1(C)OC(N)=N[C@](C)(c2cc(NC(=O)c3ccc(OCC(F)(F)F)cn3)ccc2F)C1(F)F [Example 29, 5-(2,2,2-Trifluoro-ethoxy)-pyridine-2-carboxylic acid [3-((R)-2-amino-5,5-difluoro-4,6,6-trimethyl-5,6-dihydro-4H-[1,3]oxazin-4-yl)-4-fluoro-phenyl]-amide] | 0.14 | 44.3
4 | CC1(C)OC(N)=N[C@](C)(c2cc(NC(=O)c3ncc(Cl)cn3)ccc2F)C1(F)F [Example 32, 5-Chloro-pyrimidine-2-carboxylic acid [3-((R)-2-amino-5,5-difluoro-4,6,6-trimethyl-5,6-dihydro-4H-[1,3]oxazin-4-yl)-4-fluoro-phenyl]-amide] | 0.016 | 0.02
5 | CC1(C)OC(N)=N[C@](C)(c2cc(NC(=O)c3ncc(C(F)(F)F)cn3)ccc2F)C1(F)F [Example 33, 5-Trifluoromethyl-pyrimidine-2-carboxylic acid [3-((R)-2-amino-5,5-difluoro-4,6,6-trimethyl-5,6-dihydro-4H-[1,3]oxazin-4-yl)-4-fluoro-phenyl]-amide] | 0.029 | 2.61
6 | Cc1cnc(C(=O)Nc2ccc(F)c([C@@]3(C)N=C(N)OC(C)(C)C3(F)F)c2)cn1 [Example 34, 5-Methyl-pyrazine-2-carboxylic acid [3-((R)-2-amino-5,5-difluoro-4,6,6-trimethyl-5,6-dihydro-4H-[1,3]oxazin-4-yl)-4-fluoro-phenyl]-amide] | 0.043 | 3.58
7 | CC1(C)OC(N)=N[C@](C)(c2cc(NC(=O)c3cnc(C(F)(F)F)cn3)ccc2F)C1(F)F [Example 35, 5-Trifluoromethyl-pyrazine-2-carboxylic acid [3-((R)-2-amino-5,5-difluoro-4,6,6-trimethyl-5,6-dihydro-4H-[1,3]oxazin-4-yl)-4-fluoro-phenyl]-amide] | 0.04 | 4.75
8 | CC1(C)OC(N)=N[C@](C)(c2cc(NC(=O)c3ccc(Cl)nn3)ccc2F)C1(F)F [Example 37, 6-Chloro-pyridazine-3-carboxylic acid [3-((R)-2-amino-5,5-difluoro-4,6,6-trimethyl-5,6-dihydro-4H-[1,3]oxazin-4-yl)-4-fluoro-phenyl]-amide] | 0.71 | 50.7
9 | C[C@]1(c2cc(NC(=O)c3ccc(OC(F)F)cn3)ccc2F)N=C(N)OCC1(F)F [Example 41, 5-Difluoromethoxy-pyridine-2-carboxylic acid [3-((R)-2-amino-5,5-difluoro-4-methyl-5,6-dihydro-4H-[1,3]oxazin-4-yl)-4-fluoro-phenyl]-amide] | 0.011 | 0.855
10 | C[C@]1(c2cc(NC(=O)c3ccc(OCF)cn3)ccc2F)N=C(N)OCC1(F)F [Example 42, 5-Fluoromethoxy-pyridine-2-carboxylic acid [3-((R)-2-amino-5,5-difluoro-4-methyl-5,6-dihydro-4H-[1,3]oxazin-4-yl)-4-fluoro-phenyl]-amide] | 0.029 | 0.3
11 | C[C@]1(c2cc(NC(=O)c3ccc(OCC(F)(F)C(F)(F)F)cn3)ccc2F)N=C(N)OCC1(F)F [Example 44, 5-(2,2,3,3,3-Pentafluoro-propoxy)-pyridine-2-carboxylic acid [3-((R)-2-amino-5,5-difluoro-4-methyl-5,6-dihydro-4H-[1,3]oxazin-4-yl)-4-fluoro-phenyl]-amide] | 0.29 | 14.5
12 | C[C@]1(c2cc(NC(=O)c3ccc(OCC(F)F)cn3)ccc2F)N=C(N)OCC1(F)F [Example 45, 5-(2,2-Difluoro-ethoxy)-pyridine-2-carboxylic acid [3-((R)-2-amino-5,5-difluoro-4-methyl-5,6-dihydro-4H-[1,3]oxazin-4-yl)-4-fluoro-phenyl]-amide] | 0.4 | 25.7
13 | C[C@]1(c2cc(NC(=O)c3cnc(Cl)cn3)ccc2F)N=C(N)OCC1(F)F [Example 47, 5-Chloro-pyrazine-2-carboxylic acid [3-((R)-2-amino-5,5-difluoro-4-methyl-5,6-dihydro-4H-[1,3]oxazin-4-yl)-4-fluoro-phenyl]-amide] | 0.52 | 34.9
14 | C[C@]1(c2cc(NC(=O)c3ncc(Cl)nc3Cl)ccc2F)N=C(N)OCC1(F)F [Example 48, 3,5-Dichloro-pyrazine-2-carboxylic acid [3-((R)-2-amino-5,5-difluoro-4-methyl-5,6-dihydro-4H-[1,3]oxazin-4-yl)-4-fluoro-phenyl]-amide] | 1.13 | 6.74
15 | C[C@]1(c2cc(NC(=O)c3ccc(C#N)cn3)cc(F)c2F)N=C(N)OCC1(F)F [Example 49, 5-Cyano-pyridine-2-carboxylic acid [3-((R)-2-amino-5,5-difluoro-4-methyl-5,6-dihydro-4H-[1,3]oxazin-4-yl)-4,5-difluoro-phenyl]-amide] | 0.026 | 0.151
16 | C[C@]1(c2cc(NC(=O)c3ccc(Cl)cn3)ccc2Cl)N=C(N)OCC1(F)F [Example 50, 5-Chloro-pyridine-2-carboxylic acid [3-((R)-2-amino-5,5-difluoro-4-methyl-5,6-dihydro-4H-[1,3]oxazin-4-yl)-4-chloro-phenyl]-amide] | 0.017 | 0.024
17 | C[C@]1(c2cc(NC(=O)c3ccc(C#N)cn3)ccc2Cl)N=C(N)OCC1(F)F [Example 51, 5-Cyano-pyridine-2-carboxylic acid [3-((R)-2-amino-5,5-difluoro-4-methyl-5,6-dihydro-4H-[1,3]oxazin-4-yl)-4-chloro-phenyl]-amide] | 0.02 | 0.327
18 | C[C@]1(c2cccc(NC(=O)c3ccc(Cl)cn3)c2)N=C(N)OCC1(F)F [Example 52, 5-Chloro-pyridine-2-carboxylic acid [3-((R)-2-amino-5,5-difluoro-4-methyl-5,6-dihydro-4H-[1,3]oxazin-4-yl)-phenyl]-amide] | 0.009 | 0.035
19 | C[C@]1(c2cccc(NC(=O)c3ccc(C#N)cn3)c2)N=C(N)OCC1(F)F [Example 53, 5-Cyano-pyridine-2-carboxylic acid [3-((R)-2-amino-5,5-difluoro-4-methyl-5,6-dihydro-4H-[1,3]oxazin-4-yl)-phenyl]-amide] | 0.013 | 0.349
20 | C[C@]1(c2cc(NC(=O)c3ncccc3OCC(F)(F)F)ccc2F)N=C(N)OCC1(F)F [Example 54, 3-(2,2,2-Trifluoro-ethoxy)-pyridine-2-carboxylic acid [3-((R)-2-amino-5,5-difluoro-4-methyl-5,6-dihydro-4H-[1,3]oxazin-4-yl)-4-fluoro-phenyl]-amide] | 0.635 | 0.245
